Assay results from paper PMC8158687, “Xanthones Active against Multidrug Resistance and Virulence Mechanisms of Bacteria” (Antibiotics, 2021).

Assays:
S. aureus 272123 [1] = assay: Efflux pump inhibition assay (real-time ethidium bromide accumulation); assay type: cell-based, Staphylococcus aureus; conditions: compound 50 µM, EB 1 µg/mL, minute 60
Experimental: Compounds 1–20 were assessed for their capability of modulating ethidium bromide (EB) accumulation on two resistant strains. […] However, norA is a core gene of the S. aureus as a species, which means that the NorA pump occurs in all S. aureus strains.
(§1) Salmonella enterica serovar Typhimurium SE03, was used as a Gram-negative bacterium. This strain has a deletion of the acrA gene, which was predicted with the least affinity for the compounds. The aim of these studies was to perform a first screening of these compounds and their ability to modulate the efflux of EB. […] The relative fluorescence index (RFI) was calculated based on the means of relative fluorescence units, depicted in Table 2.
(§2) Compounds 1–20 were evaluated for their ability to inhibit efflux pumps in SE03 and S. aureus 272123 strains, through the real-time fluorimetry, monitoring the intracellular accumulation of EB, an efflux pump substrate. This was determined by the automated method using a CLARIOstar Plus plate reader (BMG Labtech, Ortenberg, Germany). Reserpine and CCCP were applied at 25 µM as positive controls, and the solvent DMSO was applied at 1% v/v. The bacterial strains were incubated in an appropriate culture media (TSB—S. aureus 272123; LB-B—SE03) at 37 °C until they reached an optical density (OD) between 0.4 and 0.6 at λ = 600 nm. The culture was centrifuged at 13,000× g for 3 min, and the pellet washed and resuspended with PBS. The suspension was centrifuged again in the same conditions and resuspended in PBS. The compounds were applied at 50 µM in a solution of a non-toxic concentration of EB (1 µg/mL) in PBS. Then, 50 µL of this solution were transferred into a 96-well black microtiter plate (Greiner Bio-One Hungary Kft, Mosonmagyaróvár, Fertősor, Hungary), and 50 µL of bacterial suspension (OD600 0.4–0.6) were added to each well. The plates were placed into the CLARIOstar plate reader, and the fluorescence was monitored at excitation and emission wavelengths of 530 nm and 600 nm every minute for one hour on a real-time basis. From the real-time data, the activity of the compounds, namely the RFI of the last time point (minute 60) of the EB accumulation assay, was calculated according to the following formula:(1) RFI=RFtreated−RFuntreated/RFuntreated where RFtreated is the relative fluorescence (RF) at the last time point of EB accumulation curve in the presence of the compound, and RFuntreated is the RF at the last time point of the EB accumulation curve of the untreated control, having only the solvent (DMSO) control. The accumulation curves were designed using Microsoft Excel®.

[2] = system: SE03 (acrA gene-inactivated Salmonella enterica serovar Typhimurium SL1344); assay: as above; assay type: cell-based; conditions: compound 50 µM, EB 1 µg/mL, minute 60
Experimental: as §1, §2

[3] = system: EZF + CV026 (Sphingomonas paucimobilis Ezf 10-17 + Chromobacterium violaceum CV026); assay: Quorum sensing inhibition assay (parallel inoculation, pigment production); assay type: cell-based; conditions: read-out: Quorum Sensing Inhibition (mm) ± SD
Source text: (§3) The sensor strain Chromobacterium violaceum CV026 and the acyl-homoserine lactones (AHLs) producer strain Sphingomonas paucimobilis Ezf 10-17 (EZF) were inoculated as parallel lines, and the AHL producers, Chromobacterium violaceum wild type 85 (wt85) and Serratia marcescens AS-1 were inoculated as a single line.
(§4) For the QS tests, all the bacteria used were Gram-negative. The bacteria used were Chromobacterium violaceum wild type 85 (wt85), characterized by the AHL signal molecule-mediated production of the purple violacein pigment, capable of endogenous QS-signal molecule production (N-hexanoyl-L-HSL), C. violaceum CV026 (CV026), a Tn5 transposase-mutant, AHL-signal molecule indicator strain (produces purple violacein pigment in the presence of AHL), which is incapable of endogenous QS-signal molecule-production, but useful in the detection of external stimuli, Sphingomonas paucimobilis Ezf 10-17 (EZF), AHL-producing-strain (used with C. violaceum CV026), and Serratia marcescens AS-1, characterized by the AHL signal molecule-mediated production of the orange–red pigment prodigiosin (2-methyl-3-pentyl-6-methoxyprodigiosin), capable of endogenous QS-signal molecule production (N-hexanoyl-L-HSL), were applied.
(§5) The QS inhibitory effect of the compounds was examined on the EZF and the sensor CV026 strains, on the wt85 strain, and on S. marcescens, for 4, 5, 11, 12, 16, 19, and 20. The method used was the parallel inoculation method, where pair combinations of the used sensor strain CV026 and the N-acyl-homoserine lactone (AHL)-producing strain EZF were inoculated directly onto the LB*-A agar surface in parallel, at an approximate distance of 5 mm from each other. S. marcescens AS-1 and wt85 were inoculated as a single line. Filter paper disks (7 mm in diameter) were placed on the center of the inoculated line(s) and impregnated with 8 µL of a solution of 10 mM of the compounds. […] The agar plates were incubated at room temperature (20 °C) for 24–48 h. The QS inhibition was accessed visually, through the inhibition of pigment production. The discolored, but intact, bacterial colonies were measured with a ruler.

S. aureus 272123 [4] = assay: Inhibition of biofilm formation (crystal violet); assay type: cell-based, Staphylococcus aureus; conditions: half the MIC, or 100 µM if MIC >100 µM, 48 h, 30 °C
Experimental: The biofilm inhibition, presented in percentages (%), was calculated based on the mean of absorbance units.
The bacterial strains used were the Gram-positive S. aureus ATCC 25923 and S. aureus 272123. The detection of the biofilm formation was possible with the use of the dye crystal violet (CV; 0.1% v/v). The initial inoculum was incubated in TSB overnight, and then diluted to an OD600 of 0.1. Then, the bacterial suspension was added to 96-well microtiter plates and the compounds were added at half the MIC. […] The final volume in each well was 200 µL. […] The plates were incubated at 30 °C for 48 h, with gentle stirring (100 rpm). After this incubation period, the TSB medium was discarded, and the plates were washed with tap water to remove unattached cells. Afterwards, 200 µL of a 0.1% v/v CV solution were added to the wells and incubated for 15 min at room temperature. Then, the CV solution was removed from the wells, and the plates were washed again with tap water, and 200 µL of a 70% ethanolic solution were added to the wells. The biofilm formation was determined by measuring the OD600 using a Multiscan EX ELISA plate reader (Thermo Labsystems, Cheshire, WA, USA). The anti-biofilm effect of the compounds was expressed as the percentage (%) of decrease in biofilm formation.

S. aureus ATCC 29213 = assay: Inhibition of biofilm formation (crystal violet); assay type: cell-based, Staphylococcus aureus; conditions: half the MIC, or 100 µM if MIC >100 µM, 48 h, 30 °C
[5] = system: Chromobacterium violaceum wild type 85 (wt85); assay: Quorum sensing inhibition assay (disk, pigment production); assay type: cell-based; conditions: read-out: Quorum Sensing Inhibition (mm) ± SD
Source text: as §3, §4, §5

Serratia marcescens AS-1 = assay: as above; assay type: cell-based; conditions: AS1, read-out: Quorum Sensing Inhibition (mm) ± SD
Source text: as §3, §4, §5

Cytotoxicity assay (MTT) = assay type: cell-based, mouse; conditions: mouse, NIH/3T3 mouse fibroblast cells, 24 h, MTT, read-out: Cytotoxicity IC50 (µM) ± SD
Experimental: In order to apply efflux pump inhibitors to treat patients, several issues should be addressed.
Mouse fibroblasts (NIH/3T3, ATCC CRL-1658TM) were cultivated in DMEM (Gibco 52100-039) and supplemented with 10% heat-inactivated fetal bovine serum (Biowest, VWR International Kft, Debrecen, Hungary), 2 mM of L-glutamine, 1 mM Na pyruvate, 100 U/L and 10 mg/L penicillin/streptomycin mixture (Sigma-Aldrich Chemie GmbH, Steinheim, Germany), respectively, and 0.1% nystatin (8.3 g/L in ethylene glycol). The adherent cells were detached using a combination of 0.25% Trypsin–Versene (EDTA) solution for 5 min at 37 °C. Before each cytotoxicity assay using this cell line, cells were seeded in untreated 96-well flat-bottom microtiter plates, following a 4-h incubation period in a humidified atmosphere (5% CO2, 95% air) at 37 °C [60].
The cytotoxicity of 4, 12, 16, 19, and 20 was assessed in NIH/3T3 cells. The compounds were added to the cells distributed into 96-well flat bottom microtiter plates at concentrations of […] and initially incubated for 24 h, after which a solution of MTT in PBS was added to each well and incubated for another 4 h. The concentrations used were the same as in the MIC assay. After this, 100 μL of SDS (10% in a 0.01 M HCl solution) were added to each well and incubated overnight at 37 °C. Doxorubicin was used as the positive control. Cell growth was determined in quadruplicate by measuring OD at λ = 540 nm (reference 630 nm) in a Multiscan EX ELISA reader (Thermo Labsystems, Cheshire, WA, USA). The percentage of inhibition of cell growth was determined according to the equation: (2) 100−(ODsample−ODmedium control/ODcell control−ODmedium control)×100

Compound	RFI ± SD (relative fluorescence index) (S. aureus 272123 [1])	RFI ± SD (relative fluorescence index) [2]	zone of inhibition at 10000 µM [3] [mm]	Inhibition of Biofilm Formation (%) ± SD (S. aureus 272123 [4])	Inhibition of Biofilm Formation (%) ± SD (S. aureus ATCC 29213)	zone of inhibition at 10000 µM [5] [mm]	zone of inhibition at 10000 µM (Serratia marcescens AS-1) [mm]	IC50 at 24 h (Cytotoxicity assay (MTT)) [µM]
O=c1c2ccccc2oc2c(O)cccc12 [Compound 1]	−0.36 ± 0.03 ^1	−0.01 ± 0.05 ^6	–	–	–	–	–	–
O=c1c2ccccc2oc2ccc(O)c(O)c12 [Compound 3]	−0.05 ± 0.06 ^3	0.23 ± 0.04 ^8	–	–	–	–	–	–
Cc1c(O)cc2oc3ccccc3c(=O)c2c1O [Compound 5]	0.16 ± 0.08 ^2	1.74 ± 0.22 ^7	0	61.62 ± 16.51 ^3%	0 ^1%	0	0	–
Cc1cc(O)c(O)c2oc3ccccc3c(=O)c12 [Compound 6]	−0.91 ± 0.01 ^4	−0.91 ± 0.01 ^9	–	–	–	–	–	–
Cc1cc(O)c(O)c2oc3cc(O)ccc3c(=O)c12 [Compound 7]	−0.92 ± 0.00 ^5	−0.87 ± 0.02 ^10	–	–	–	–	–	–
COc1cc(C)c2c(=O)c3ccccc3oc2c1OC [Compound 8]	0.15 ± 0.25 ^4	0.05 ± 0.11 ^9	–	–	–	–	–	–
COc1c(Cl)c(C)c2c(=O)c3ccccc3oc2c1OC [Compound 9]	−0.04 ± 0.26 ^4	0.05 ± 0.09 ^9	–	–	–	–	–	–
COc1ccc2c(=O)c3c(C)cc(OC)c(OC)c3oc2c1 [Compound 10]	0.18 ± 0.20 ^5	0.24 ± 0.05 ^10	–	–	–	–	–	–
COc1cccc2oc3ccccc3c(=O)c12 [Compound 11]	–	–	0	39.95 ± 7.66 ^3%	0 ^1%	0	0	–
COc1ccc2c(=O)c3c(CBr)cc(OC)c(OC)c3oc2c1 [Compound 13]	0.53 ± 0.20 ^5	1.16 ± 0.64 ^10	–	–	–	–	–	–
COc1cc(C=O)c2c(=O)c3ccccc3oc2c1O [Compound 14]	−0.28 ± 0.06 ^2	0.02 ± 0.02 ^7	–	–	–	–	–	–
COc1cc(C=O)c2c(=O)c3ccccc3oc2c1OC [Compound 15]	0.08 ± 0.07 ^4	0.13 ± 0.09 ^9	–	–	–	–	–	–
COC(=O)c1cc(OC)c(OC)c2oc3cc(OC)ccc3c(=O)c12 [Compound 17]	−0.34 ± 0.02 ^5	−0.29 ± 0.08 ^10	–	–	–	–	–	–
COc1cc(CNCc2ccc(Cl)cc2)c2c(=O)c3ccccc3oc2c1OC [Compound 18]	−0.01 ± 0.04 ^3	0.04 ± 0.04 ^8	–	–	–	–	–	–
COc1cc(CNCc2ccc(F)cc2)c2c(=O)c3ccccc3oc2c1OC [Compound 19]	0.02 ± 0.02 ^3	2.86 ± 0.14 ^8	0	65.03 ± 9.86 ^4%	–	0	0	> 100
COc1cc(CN[C@H](C)c2ccc(Cl)cc2)c2c(=O)c3ccccc3oc2c1OC [Compound 20]	1.08 ± 0.82 ^4	2.09 ± 0.05 ^11	0	77.17 ± 4.45 ^4%	–	0	0	35.1 ± 4.86
COc1cccc2c1C(=O)c1c(O)c3c(c(O)c1C2=O)C[C@@](O)(C(=O)CO)C[C@@H]3O[C@H]1C[C@H](N)[C@H](O)[C@H](C)O1 [Doxorubicin, reference compound]	–	–	–	–	–	–	–	12.1 ± 0.81
CC(CN1c2ccccc2Sc2ccccc21)N(C)C (stereo not drawn) [PMZ, promethazine, reference compound]	–	–	40 ± 0.1	–	–	41 ± 0.5	18 ± 0.8	–
